Counter-ions that a name gives are not always drawn.
Columns and labels:
[1] = molecular target: T1, pseudo-kinase domain (JH2, amino-acids 536-812) of human V617F mutant JAK2 (Homo sapiens, UniProt O60674, F794H/V617F/W659A/W777A); assay: JAK2 LanthaScreen JH2-V617F Binding Assay; conditions: 1 hour at 25° C.
T1 construct: pseudo-kinase domain (JH2, amino-acids 536-812 with 3 surface mutations W659A, W777A, F794H); purchased BPS Bioscience 79498; host or cells: baculovirus expression system
Outline: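 IC50 values came from four-parameter dose-response fits of LanthaScreen signal, read after compounds sat 1 hour at 25° C with 0.26 nM baculovirus-expressed biotinylated protein, 50 nM fluorescent tracer and 0.25 nM streptavidin-Tb cryptate. Non-specific binding was set with 2 mM ATP.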

[2] = molecular target: T2, catalytic domain (JH1, amino acids 808-1132) of human JAK2 (Homo sapiens, UniProt O60674); assay: JAK2 HTRF Enzyme Activity Assay; assay type: biochemical; conditions: ATP 30 μM, read-out: ENZ 30UMATP
T2 construct: catalytic domain (JH1, amino acids 808-1132) of human JAK2; His (N); purchased BPS Bioscience 40450; host or cells: baculovirus expression system
T2 sequence (O60674 808-1132): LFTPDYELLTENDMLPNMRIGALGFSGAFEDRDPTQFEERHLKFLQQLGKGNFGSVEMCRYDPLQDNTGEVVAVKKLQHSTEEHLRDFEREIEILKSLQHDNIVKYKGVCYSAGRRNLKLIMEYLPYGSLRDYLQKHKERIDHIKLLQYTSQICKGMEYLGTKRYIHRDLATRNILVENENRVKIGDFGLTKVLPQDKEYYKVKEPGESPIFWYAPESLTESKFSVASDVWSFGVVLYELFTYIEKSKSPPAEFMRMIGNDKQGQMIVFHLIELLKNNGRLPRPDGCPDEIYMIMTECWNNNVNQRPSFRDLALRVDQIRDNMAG
Outline: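 His-tagged JAK2 JH1 from baculovirus, 0.015 nM, incubated with compound, ATP at 30 μM or 1 mM and 500 nM biotinylated peptide, pH 7.5, 60 min at 25° C. HTRF read-out via Eu-anti-phosphotyrosine and streptavidin-APC after EDTA stop; IC50 from four-parameter dose-response fit.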

[3] = molecular target: T3, catalytic domain (JH1, amino acids 826-1132) of human JAK2 (Homo sapiens, UniProt O60674); assay: JAK2 LanthaScreen JH1 Binding Assay; conditions: 2 hours at 25° C.
T3 construct: catalytic domain (JH1, amino acids 826-1132) of human JAK2; purchased Carna Biosciences 08-445-20N; host or cells: baculovirus expression system
T3 sequence (O60674 826-1132): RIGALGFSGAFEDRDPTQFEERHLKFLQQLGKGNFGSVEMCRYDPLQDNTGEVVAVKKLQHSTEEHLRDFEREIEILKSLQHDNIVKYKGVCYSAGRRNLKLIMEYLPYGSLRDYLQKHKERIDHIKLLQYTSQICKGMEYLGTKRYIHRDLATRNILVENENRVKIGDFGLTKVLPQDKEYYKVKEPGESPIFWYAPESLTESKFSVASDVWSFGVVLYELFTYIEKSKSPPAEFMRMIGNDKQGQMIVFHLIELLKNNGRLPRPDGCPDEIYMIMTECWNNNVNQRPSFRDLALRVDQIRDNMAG
Outline: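 FLAG-tagged biotinylated JAK2 JH1 (1.5 nM) incubated with compounds, 50 nM fluorescent tracer and 0.5 nM streptavidin-Tb in Tris pH 7.5 buffer with MgCl2, BSA, DTT, 2 h at 25 °C.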

[4] = molecular target: T4, pseudo-kinase domain (JH2, amino-acids 536-812) of human Wild Type JAK2 (Homo sapiens, UniProt O60674, F794H/W659A/W777A); assay: JAK2 LanthaScreen JH2-WT Binding Assay; conditions: 1 hour at 25° C.
T4 construct: pseudo-kinase domain (JH2, amino-acids 536-812 with 3 surface mutations W659A, W777A, F794H); purchased BPS Bioscience 79463; host or cells: baculovirus expression system
T4 sequence (O60674 536-812 W659A/W777A/F794H): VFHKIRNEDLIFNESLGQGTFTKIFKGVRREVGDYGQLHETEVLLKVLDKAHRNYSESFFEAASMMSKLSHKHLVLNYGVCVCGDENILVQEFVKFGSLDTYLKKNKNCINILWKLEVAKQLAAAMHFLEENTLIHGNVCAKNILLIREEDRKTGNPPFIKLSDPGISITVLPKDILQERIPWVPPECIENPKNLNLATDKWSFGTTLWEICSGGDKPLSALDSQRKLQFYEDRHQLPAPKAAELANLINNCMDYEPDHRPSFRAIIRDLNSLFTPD
Outline: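 Binding was measured by TR-FRET between streptavidin-Tb (0.25 nM) on biotinylated JH2 (0.145 nM) and 50 nM fluorescent tracer, with compound dose series, 1 h at 25° C; IC50 fitted.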

T1 sequence (O60674 536-812 V617F/W659A/W777A/F794H): as the sequence (O60674 536-812 W659A/W777A/F794H) above, with V82F counted along it

SMILES	IC50 [1]	IC50 [2]	IC50 [3]	IC50 [4]
O=C(O)C(F)(F)F.[2H]C([2H])([2H])n1ncc2cc(-c3c(-c4cnn(CC(C)(C)OC)c4)[nH]c4ncc5c(c34)C3(CC4(CN(S(=O)(=O)CC)C4)C3)C(=O)N5C)ccc21 [Example 96, 1-(Ethylsulfonyl)-2″-(1-(2-methoxy-2-methylpropyl)-1H-pyrazol-4-yl)-6″-methyl-1″-(1-(methyl-d3)-1H-indazol-5-yl)-3″,6″-dihydro-7″H-dispiro[azetidine-3,1′-cyclobutane-3′,8″-dipyrrolo[2,3-b:3′,2′-d]pyridin]-7″-one, trifluoroacetate salt]	≤ 100 nM	> 2500 nM	> 2500 nM	≤ 100 nM
CCS(=O)(=O)N1CC2(C1)CC1(C2)C(=O)N(C)c2cnc3[nH]c(-c4cnn(CC5CCOCC5)c4)c(-c4ccc5c(cnn5C)c4)c3c21 [Example 97, 1-(Ethylsulfonyl)-6″-methyl-1″-(1-methyl-1H-indazol-5-yl)-2″-(1-((tetrahydro-2H-pyran-4-yl)methyl)-1H-pyrazol-4-yl)-3″,6″-dihydro-7″H-dispiro[azetidine-3,1′-cyclobutane-3′,8″-dipyrrolo[2,3-b:3′,2′-d]pyridin]-7″-one, trifluoroacetate salt]	≤ 100 nM	1250 to 2500 nM	1250 to 2500 nM	≤ 100 nM

Source: US11958861B2, “Spirocyclic lactams as JAK2 V617F inhibitors” (Incyte Corporation, priority 2021, dated 2024)
